Patent US20130196406A1, “NOVEL PROTEIN-POLYMER NANOCAPSULES” (University of Connecticut, priority 2012, published 2013)

Assays:
[1] = molecular target: T1, Hb-PAA-1k-6 nanocapsule (bovine met-hemoglobin conjugated to polyacrylic acid, synthesized at pH 6) (Bos taurus, UniProt P01966+P02070); experiment: Peroxidase-like activity, Michaelis-Menten kinetics (guaiacol oxidation by H2O2, 470 nm), Hb-PAA-1k-6; type: biochemical; conditions: 1 μM Hb, 2.5 mM guaiacol, 1 mM H2O2
T1 construct: peroxidase-like activity with guaiacol/H2O2
T1 sequence (P01966 whole entry): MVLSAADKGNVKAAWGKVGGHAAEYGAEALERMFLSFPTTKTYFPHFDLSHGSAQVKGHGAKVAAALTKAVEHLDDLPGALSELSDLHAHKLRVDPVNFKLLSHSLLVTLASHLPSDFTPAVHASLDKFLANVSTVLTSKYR
T1 sequence (P02070 whole entry): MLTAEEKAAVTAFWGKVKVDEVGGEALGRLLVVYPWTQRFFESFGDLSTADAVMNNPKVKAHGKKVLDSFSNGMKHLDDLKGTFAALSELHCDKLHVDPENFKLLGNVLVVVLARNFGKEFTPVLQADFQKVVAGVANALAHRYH
Procedure: (§1) FIG. 5 provides Lineweaver-Burk plots for the peroxidase-like activity of Hb-PAA conjugates. A) Peroxidase-like activity for the 1 μM of Hb-PAA synthesized at pH 6.0. B) Peroxidase-like activity for 1 μM Hb-PAA synthesized at pH 7.0. All experiments were done in the presence of 1 μM Hb, 2.5 mM guaiacol and 1 mM H2O2.
(§2) Polyacrylic acid (PAA) (8000 Da) was purchased from sigma chemical Co (St. Louis, Mo.). The PAA stock solution was made by mixing 1.32 gm of 45% (w/w) PAA in 3 ml of 20 mM Na2HPO4 buffer, pH 7.2, and was further used for synthesis. Met-hemoglobin (Hb, bovine) was purchased from Sigma. Protein solutions were prepared in the respective buffers used for synthesis and the concentrations determined from the Soret absorbance of Hb using extinction co-efficient 303,956 M^−1 cm^−1 at 407 nm. […]
(§3) Hb activity was monitored by the addition of guaiacol (substrate) and hydrogen peroxide (oxidant), and formation of the colored product has been monitored by its absorption at 470 nm as a function of time (FIG. 4). […]
(§4) Hb activity was followed by literature method, with minor modifications. Product absorbance at 470 nm was monitored as a function time of after the addition of H2O2 (1 mM) to Hb (5 μM) and o-methoxyphenol (2.5 mM). Initial rates and Michaelis-Menten parameters were calculated from the kinetic data by following standard protocols. […]

[2] = molecular target: T2, Hb-PAA-1k-7 nanocapsule (bovine met-hemoglobin conjugated to polyacrylic acid, synthesized at pH 7) (Bos taurus, UniProt P01966+P02070); experiment: Peroxidase-like activity, Michaelis-Menten kinetics (guaiacol oxidation by H2O2, 470 nm), Hb-PAA-1k-7; type: biochemical; conditions: 1 μM Hb, 2.5 mM guaiacol, 1 mM H2O2
T2 construct: peroxidase-like activity with guaiacol/H2O2
T2 sequence (P01966 whole entry): as the sequence (P01966 whole entry) above
T2 sequence (P02070 whole entry): as the sequence (P02070 whole entry) above
Procedure: as §1, §2, §3, §4

With COc1ccccc1O [guaiacol, o-methoxyphenol] as the compound, how does the Vmax [1] read?
Its Vmax is 0.0028 mM/s.

And the Vmax [2]?
The Vmax was 0.0025 mM/s.
